# According to US20240246932A1 (Merck Sharp & Dohme LLC, priority 2021, published 2024):
# Target: human NaV 1.8 channels stably expressed in HEK 293 cells (Homo sapiens (Human), UniProt Q9Y5Y9)
# Assay: Nav1.8 Qube automated patch-clamp assay
# Format: cell-based
# Conditions: human NaV1.8 in HEK 293 cells, whole-cell voltage clamp, room temperature; read-out: IC50 values (nM) for Examples in the Nav1.8 Qube Assay
# How it was run: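 Whole-cell voltage clamp at room temperature on HEK293 cells; from −90 mV, a 10 s 1 Hz train of 20 ms pulses to 10 mV (repolarising to −67 mV) was applied. Peak currents at pulses 1 and 10 gave resting- and inactivated-state inhibition; IC50 fitted by Hill equation. Internal CsF/CsCl buffer.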
# Sequence of human NaV 1.8 channels stably expressed in HEK 293 cells (Q9Y5Y9 whole entry): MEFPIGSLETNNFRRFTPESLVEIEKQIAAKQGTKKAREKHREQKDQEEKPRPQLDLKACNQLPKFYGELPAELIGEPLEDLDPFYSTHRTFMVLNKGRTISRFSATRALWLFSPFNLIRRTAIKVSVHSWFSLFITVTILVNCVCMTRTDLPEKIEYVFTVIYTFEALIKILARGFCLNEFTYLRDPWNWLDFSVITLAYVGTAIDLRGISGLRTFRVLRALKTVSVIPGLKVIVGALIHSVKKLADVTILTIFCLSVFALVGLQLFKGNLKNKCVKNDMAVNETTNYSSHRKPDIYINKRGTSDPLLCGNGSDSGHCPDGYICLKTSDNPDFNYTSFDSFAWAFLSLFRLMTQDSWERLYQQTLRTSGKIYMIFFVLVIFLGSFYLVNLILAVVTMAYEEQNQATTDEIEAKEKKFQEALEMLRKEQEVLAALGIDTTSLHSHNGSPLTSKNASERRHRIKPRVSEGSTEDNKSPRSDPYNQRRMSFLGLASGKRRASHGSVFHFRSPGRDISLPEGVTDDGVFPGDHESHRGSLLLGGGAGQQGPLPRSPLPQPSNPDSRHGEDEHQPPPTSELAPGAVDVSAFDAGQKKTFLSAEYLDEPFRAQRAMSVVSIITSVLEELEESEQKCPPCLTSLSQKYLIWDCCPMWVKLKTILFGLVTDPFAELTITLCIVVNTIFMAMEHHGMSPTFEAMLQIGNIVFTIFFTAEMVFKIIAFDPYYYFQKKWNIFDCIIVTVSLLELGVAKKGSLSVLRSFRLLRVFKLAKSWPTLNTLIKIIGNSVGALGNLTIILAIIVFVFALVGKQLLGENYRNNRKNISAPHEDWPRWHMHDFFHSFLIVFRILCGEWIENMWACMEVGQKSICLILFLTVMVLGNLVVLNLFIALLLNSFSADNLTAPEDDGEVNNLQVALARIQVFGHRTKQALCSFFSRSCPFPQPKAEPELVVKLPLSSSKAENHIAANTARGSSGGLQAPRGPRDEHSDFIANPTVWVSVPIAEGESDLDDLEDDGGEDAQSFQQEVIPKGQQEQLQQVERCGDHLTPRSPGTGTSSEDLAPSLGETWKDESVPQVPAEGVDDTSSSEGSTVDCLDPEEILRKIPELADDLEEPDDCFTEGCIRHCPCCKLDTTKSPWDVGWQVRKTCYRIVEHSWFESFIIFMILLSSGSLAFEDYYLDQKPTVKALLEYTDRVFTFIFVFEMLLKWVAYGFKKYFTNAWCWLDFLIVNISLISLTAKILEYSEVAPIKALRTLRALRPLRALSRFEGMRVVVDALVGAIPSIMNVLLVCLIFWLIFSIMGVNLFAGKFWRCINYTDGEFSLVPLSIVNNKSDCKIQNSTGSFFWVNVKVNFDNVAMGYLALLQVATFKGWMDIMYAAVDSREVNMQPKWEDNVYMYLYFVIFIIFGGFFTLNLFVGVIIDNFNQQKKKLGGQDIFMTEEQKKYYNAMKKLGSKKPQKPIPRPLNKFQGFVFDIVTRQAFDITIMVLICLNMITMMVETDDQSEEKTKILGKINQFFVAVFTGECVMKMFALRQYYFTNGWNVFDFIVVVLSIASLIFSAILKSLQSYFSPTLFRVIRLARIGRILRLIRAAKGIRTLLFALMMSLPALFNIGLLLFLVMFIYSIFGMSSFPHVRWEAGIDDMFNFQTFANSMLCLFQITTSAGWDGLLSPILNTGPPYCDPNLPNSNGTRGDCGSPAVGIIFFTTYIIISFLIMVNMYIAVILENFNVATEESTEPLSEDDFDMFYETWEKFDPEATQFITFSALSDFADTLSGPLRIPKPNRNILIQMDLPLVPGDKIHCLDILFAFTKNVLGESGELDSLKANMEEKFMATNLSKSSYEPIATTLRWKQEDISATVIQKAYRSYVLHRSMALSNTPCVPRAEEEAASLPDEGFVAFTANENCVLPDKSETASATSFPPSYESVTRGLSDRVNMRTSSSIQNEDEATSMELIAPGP
row,IC50 [nM],SMILES
1,1.85,"O=C1NCCN(C(=O)NC(c2cnc(C(F)(F)F)c(F)c2)c2ccc(F)c(Cl)c2F)C1C1CC1 (single isomer, unassigned) [Example 37A, N-(R or S)-(3-chloro-2,4-difluorophenyl)(5-fluoro-6-(trifluoro-methyl)pyridin-3-yl)methyl)-(R or S)-2-cyclopropyl-3-oxopiperazine-1-carboxamide]"
2,42,"C[C@@H]1C(=O)NCCN1C(=O)NC(c1ccc(F)c(Cl)c1)c1cnn(CC(F)(F)F)c1 (single isomer, unassigned) [Example 67B, (2R)-N-((S or R)-(3-chloro-4-fluorophenyl)(1-(2,2,2-trifluoroethyl)-1H-pyrazol-4-yl)methyl)-2-methyl-3-oxopiperazine-1-carboxamide]"
3,136,"O=C1CN(C(=O)NC(c2ccc(OCC(F)(F)F)nc2)c2ccc(F)c(Cl)c2F)CCN1 (single isomer, unassigned) [Example 8B, N-((S or R)-(3-chloro-2,4-difluorophenyl)(6-(2,2,2-trifluoroethoxy)pyridin-3-yl)methyl)-3-oxopiperazine-1-carboxamide]"
4,64.5,"C[C@@H]1C(=O)NCCN1C(=O)NC(c1ccc(Cl)c(C#N)c1)c1ccc(F)c(C(F)(F)F)n1 (single isomer, unassigned) [Example 52B, (2R)-N-((S or R)-(4-chloro-3-cyano-phenyl)(5-fluoro-6-(trifluoromethyl)pyridin-2-yl)methyl)-2-methyl-3-oxopiperazine-1-carboxamide]"
